Laboratory results taken from patent US20020128231A1 (priority 2000, published 2002).

Columns and labels:
P-glycoprotein = P-glycoprotein (Homo sapiens, UniProt P08183); assay: Rhodamine 123 transport assay across HCT-8 cell monolayers; settings: for inhibition at 10 μM: human, HCT-8 cell monolayers in Transwell dishes, probe Rhodamine 123 (15 μM)
Procedure: The human ileocecal adenocarcinoma cell line HCT-8 was grown in RPMI-1640 medium supplemented with 10% horse serum, 1 mM sodium pyruvate and 0.01 mg/ml gentamicin. All cells were maintained in a humidified atmosphere with 5% CO2 at 37° C.
Rhodamine 123 transport was examined as previously described (Hunter J. et al., Simmons, Br. J. Cancer, 64: 437444 (1991); Kim A. E. et al., J. Pharm. Exp. Ther., 286: 1439-1445 (1998)) using HCT-8 cells. Particularly, cells were grown in 6 well Corning Transwell dishes until a tight monolayer was formed. Rh123 was added at a final concentration of 15 μM to the basal or apical compartments and 200 μl samples were taken at the indicated times from the opposite chamber. Fluorescence of Rh123 in the media samples was measured using a fluorescence plate reader with an excitation wavelength of 485 nm and an emission wavelength of 530 nm.

[1] = system: MDR1-expressing NIH 3T3 cells; assay: Cytotoxicity (MTT) assay: modulation of drug cytotoxicity in multidrug resistant cells; settings: compound 5 μM; 50 nM doxorubicin; 72 hours; MTT
[2] = compound 10 μM, Rh123 15 μM, HCT-8 cells
[3] = % Inhibition of R123 Transport, compound 10 μM, Rh123 15 μM, HCT-8 cells

P-glycoprotein, sequence (P08183 whole entry): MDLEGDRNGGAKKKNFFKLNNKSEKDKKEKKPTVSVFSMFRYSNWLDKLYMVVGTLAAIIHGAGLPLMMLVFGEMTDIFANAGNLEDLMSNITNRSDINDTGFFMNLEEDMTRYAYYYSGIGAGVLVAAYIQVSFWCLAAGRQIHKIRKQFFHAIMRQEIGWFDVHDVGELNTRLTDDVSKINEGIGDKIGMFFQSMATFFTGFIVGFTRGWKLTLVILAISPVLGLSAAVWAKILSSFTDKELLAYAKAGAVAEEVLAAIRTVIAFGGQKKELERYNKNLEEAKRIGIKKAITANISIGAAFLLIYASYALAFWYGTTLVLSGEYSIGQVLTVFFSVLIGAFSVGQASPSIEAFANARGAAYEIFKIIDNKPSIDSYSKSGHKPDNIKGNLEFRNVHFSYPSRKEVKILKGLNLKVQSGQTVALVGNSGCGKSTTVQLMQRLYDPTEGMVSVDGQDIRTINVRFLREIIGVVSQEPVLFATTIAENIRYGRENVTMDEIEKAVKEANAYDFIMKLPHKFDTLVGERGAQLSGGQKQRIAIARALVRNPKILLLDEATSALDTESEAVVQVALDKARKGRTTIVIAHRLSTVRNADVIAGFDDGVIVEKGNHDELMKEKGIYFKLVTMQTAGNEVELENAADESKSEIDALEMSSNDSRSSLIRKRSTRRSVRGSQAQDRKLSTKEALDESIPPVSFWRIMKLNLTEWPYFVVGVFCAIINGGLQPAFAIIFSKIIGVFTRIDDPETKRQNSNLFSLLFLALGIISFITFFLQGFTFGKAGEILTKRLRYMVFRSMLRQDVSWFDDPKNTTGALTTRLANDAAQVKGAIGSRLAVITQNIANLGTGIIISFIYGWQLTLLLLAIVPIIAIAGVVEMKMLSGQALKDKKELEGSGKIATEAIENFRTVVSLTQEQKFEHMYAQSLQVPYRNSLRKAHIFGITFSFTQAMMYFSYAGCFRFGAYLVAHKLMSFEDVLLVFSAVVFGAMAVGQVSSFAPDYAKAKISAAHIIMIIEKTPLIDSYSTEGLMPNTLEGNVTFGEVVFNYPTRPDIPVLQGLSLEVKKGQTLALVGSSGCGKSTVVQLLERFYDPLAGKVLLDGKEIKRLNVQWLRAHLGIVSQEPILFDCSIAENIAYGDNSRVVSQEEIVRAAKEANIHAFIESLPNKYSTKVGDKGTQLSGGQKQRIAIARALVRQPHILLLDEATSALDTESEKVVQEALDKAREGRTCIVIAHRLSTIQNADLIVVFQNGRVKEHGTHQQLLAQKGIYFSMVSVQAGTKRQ

Compound | % Inhibition of R123 Transport (P-glycoprotein; [2]) [%] | Modulation of Drug Resistance (percentage increase in doxorubicin cytotoxicity in the presence of the compounds versus in their absence) [1] [%] | inhibition at 10 μM (P-glycoprotein) [%] | inhibition at 10 μM (P-glycoprotein; [3]) [%]
COc1ccc(C2c3cc(OC)c(OC)cc3C(CCNC(=O)c3ccc(OC(F)(F)F)cc3)C2CNC(=O)c2ccc(OC(F)(F)F)cc2)cc1OC (stereo not drawn) [AV-260] | 73.84 | 2.1 | – | –
COCC1C(CCN2CCC(Cc3ccccc3)CC2)c2cc(OC)c(OC)cc2C1c1ccc(OC)c(OC)c1 (stereo not drawn) | – | 73.65 | 88.9 | –
CCCCOc1ccc(C2c3cc(OCCCC)c(OCCCC)cc3C(CC(=O)N3CCN(c4ccccc4OCC)CC3)C2C(=O)N2CCN(c3ccccc3OCC)CC2)cc1OCCCC (stereo not drawn) [AV-255, 2-{3-(3,4-Dibutoxy-phenyl)-2-[4-(2-ethoxy-phenyl)-piperazine-1-carbonyl]-5,6-dibutoxy-indan-1-yl}-1-[4-(2-ethoxy-phenyl)-piperazin-1-yl]-ethanone] | – | 6.7 | – | 96
CCCCN(CCCC)C(=O)CC1c2cc(OC)c(OC)cc2C(c2ccc(OC)c(OC)c2)C1C(=O)N(CCCC)CCCC (stereo not drawn) [AV-190, 1-(3,4-dimethoxyphenyl)-3-dibutylcarbamoylmethyl-5,6-dimethoxy-indan-2-carboxylic acid dibutyl amide] | – | 65.35 | – | 52.2
CCCCCCN(CCCCCC)C(=O)CC1c2cc(OC)c(OC)cc2C(c2ccc(OC)c(OC)c2)C1C(=O)N(CCCCCC)CCCCCC (stereo not drawn) [AV-193, 1-(3,4-dimethoxyphenyl)-3-dihexylcarbamoylmethyl-5,6-dimethoxy-indan-2-carboxylic acid dihexyl amide] | – | 25.20 | – | 11.8
CCCCOc1ccc(C2c3cc(OCCCC)c(OC)cc3C(CC(=O)N3CCN(c4ccccc4OCC)CC3)C2C(=O)N2CCN(c3ccccc3OCC)CC2)cc1OC (stereo not drawn) [AV-208, 2-{5-butoxy-3-(4-butoxy-3-methoxyphenyl)-2-[4-(2-ethoxyphenyl)-piperazine-1-carbonyl]-6-methoxy-indan-1-yl}-1-[4-(2-ethoxyphenyl)-piperazin-1-yl]-ethanone] | – | 51.78 | – | 86.1
CCOc1ccccc1N1CCN(C(=O)CC2c3cc(OC)c(OC)cc3C(c3ccc(OC)c(OC)c3)C2C(=O)N(C)C)CC1 (stereo not drawn) [AV-257, 1-(3,4-Dimethoxy-phenyl)-3-{2-[4-(2-ethoxy-phenyl)-piperazin-1-yl]-2-oxo-ethyl}-5,6-dimethoxy-indan-2-carboxylic acid dimethylamide] | – | 8.7 | – | 80.4
CCOc1ccccc1N1CCN(C(=O)CC2c3cc(OC)c(O)cc3C(c3ccc(O)c(OC)c3)C2C(=O)N2CCN(c3ccccc3OCC)CC2)CC1 (stereo not drawn) [AV-206, 2-[2-[4-(2-ethoxyphenyl)-piperazine-1-carbonyl]-5-hydroxy-3-(4-hydroxy-3-methoxyphenyl)-6-methoxy-indan-1-yl]-1-[4(2-ethoxyphenyl)-piperazin-1-yl]-ethanone] | – | 54.78 | – | 88.2
COc1ccc(C2c3cc(OC)c(OC)cc3C(CCNC(=O)c3ccccc3OC)C2CNC(=O)c2ccccc2OC)cc1OC (stereo not drawn) [AV-265] | 93.0 | −0.2 | – | –
CCN1CCN(C(=O)CC2c3cc(OC)c(OC)cc3C(c3ccc(OC)c(OC)c3)C2C(=O)N2CCN(CC)CC2)CC1 (stereo not drawn) [AV-187, 2-[3-(3,4-dimethoxyphenyl)-5,6-dimethoxy-2-(4-ethylpiperazine-1-carbonyl)-indan-1-yl]-1-(4-ethylpiperazin-1-yl)-ethanone] | – | 23.50 | – | 2.7
COc1ccc(C2c3cc(OC)c(OC)cc3C(CCN3CCN(c4ccccc4)CC3)C2CN2CCN(c3ccccc3)CC2)cc1OC (stereo not drawn) [AV-162, 2-[3-(3,4-dimethoxyphenyl)-5,6-dimethoxy-2-(4-phenylpiperazin-1-yl)methyl-indan-1-yl]-1-(4-phenylpiperazin-1-yl)-ethane] | – | 65.83 | – | 83.1
COc1ccc(C2c3cc(OC)c(OC)cc3C(CC(=O)N3CCN(c4ccccc4)CC3)C2C(=O)N2CCN(c3ccccc3)CC2)cc1OC (stereo not drawn) [AV-161, 2-[3-(3,4-dimethoxyphenyl)-5,6-dimethoxy-2-(4-phenylpiperazin-1-carbonyl)-indan-1-yl]-1-(4-phenylpiperazin-1-yl)-ethanone] | – | 75.91 | – | 64.1
COCC1C(CCN2CCN(c3ccc(C(C)=O)cc3)CC2)c2cc(OC)c(OC)cc2C1c1ccc(OC)c(OC)c1 (stereo not drawn) [AV-203] | 77.9 | 84.65 | – | –
CCCCC(CC)CN(CC(CC)CCCC)C(=O)CC1c2cc(OC)c(OC)cc2C(c2ccc(OC)c(OC)c2)C1C(=O)N(CC(CC)CCCC)CC(CC)CCCC (stereo not drawn) [AV-192, 1-{[bis(2-ethylhexyl)carbamoyl]methyl}-3-(3,4-dimethoxyphenyl)-5,6-dimethoxy-indan-2-carboxylic acid bis(2-ethylhexyl) amide] | – | 19.61 | – | 20.2
CCOc1ccc(C2c3cc(OCC)c(OC)cc3C(CC(=O)N3CCN(c4ccccc4OCC)CC3)C2C(=O)N2CCN(c3ccccc3OCC)CC2)cc1OC (stereo not drawn) [AV-207, 2-{5-ethoxy-3-(4-ethoxy-3-methoxyphenyl)-2-[4-(2-ethoxyphenyl)-piperazine-1-carbonyl]-6-methoxy-indan-1-yl}-1-[4-(2-ethoxyphenyl)-piperazin-1-yl]-ethanone] | – | 55.08 | – | 89.7
COc1ccc(C2c3cc(OC)c(OC)cc3C(CCNC(=O)NCc3ccccc3)C2CNC(=O)NCc2ccccc2)cc1OC (stereo not drawn) [AV-234, 10-benzyl-3-{2-[2-(3-benzyl-ureidomethyl)-3-(3,4-dimethoxyphenyl)-5,6-dimethoxy-indan-1-yl]-ethyl}-urea] | 37.58 | 12.50 | – | –
COCC1C(CCN2CCN(Cc3ccccc3)CC2)c2cc(OC)c(OC)cc2C1c1ccc(OC)c(OC)c1 (stereo not drawn) [AV-178, 1-benzyl-4-{2-[3-(3,4-dimethoxyphenyl)-5,6-dimethoxy-2-methoxymethyl-indan-1-yl]-ethyl}-piperazine] | – | 54.50 | – | 79
CCOC(=O)N1CCN(C(=O)CC2c3cc(OC)c(OC)cc3C(c3ccc(OC)c(OC)c3)C2C(=O)N2CCN(C(=O)OCC)CC2)CC1 (stereo not drawn) [AV-174, 4-{2-[3-(3,4-dimethoxyphenyl)-5,6-dimethoxy-2-(piperazine-1-carboxylic acid ethyl ester)-indan-1-yl]-acetyl}-piperazine-1-carboxylic acid ethyl ester] | 23.1 | 18.50 | – | –
